The target in one assay is PHF8(h) (Homo sapiens, UniProt Q9UPP1). The assay is described as follows: Epigenetic enzyme assay, Demethylases (KDMs). Type of assay: biochemical. Particulars: read-out: % Inhibition of Control Values.
The target of a further assay is T1, BAZ2A (h) bromodomain (Homo sapiens, UniProt Q9UIF9).
T1 construct: Bromodomain
T1 sequence (Q9UIF9 1793-1897 limits assumed): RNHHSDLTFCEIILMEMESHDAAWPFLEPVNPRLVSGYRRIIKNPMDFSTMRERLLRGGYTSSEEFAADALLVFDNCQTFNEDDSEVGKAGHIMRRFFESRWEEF
As to the kind of experiment: Epigenetic binding assay, Bromodomain. Conditions: read-out: % Inhibition of Control Specific Binding.

In the next assay the target is T2, JMJD2D (h) (Homo sapiens, UniProt Q6B0I6).
T2 sequence (Q6B0I6 1-523): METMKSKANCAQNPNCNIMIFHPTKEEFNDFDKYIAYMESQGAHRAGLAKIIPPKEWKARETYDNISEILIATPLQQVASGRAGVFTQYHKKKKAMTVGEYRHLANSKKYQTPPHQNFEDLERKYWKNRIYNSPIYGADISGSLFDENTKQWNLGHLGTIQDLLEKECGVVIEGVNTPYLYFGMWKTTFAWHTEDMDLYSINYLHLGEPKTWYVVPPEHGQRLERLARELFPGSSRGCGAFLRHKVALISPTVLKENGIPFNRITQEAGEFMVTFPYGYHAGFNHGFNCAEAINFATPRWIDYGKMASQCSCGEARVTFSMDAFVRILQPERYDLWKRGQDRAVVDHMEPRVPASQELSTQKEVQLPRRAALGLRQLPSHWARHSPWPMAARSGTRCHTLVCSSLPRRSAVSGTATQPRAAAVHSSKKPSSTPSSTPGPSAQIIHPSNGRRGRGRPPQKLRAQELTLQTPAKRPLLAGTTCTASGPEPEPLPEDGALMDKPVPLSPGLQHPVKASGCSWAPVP
The assay is described as follows: Epigenetic enzyme assay, Demethylases (KDMs). Format: biochemical. Conditions: read-out: % Inhibition of Control Values.

The next assay relates to HL-60 leukemia cells. The assay is described as follows: In vitro cell viability assay (intracellular ATP, 72 hour). Conditions: HL-60 (TB) (Leukemia); 10 μM. Format: cell-based.
Another assay addresses T3, CREBBP (h) bromodomain (Homo sapiens, UniProt Q92793).
T3 construct: Bromodomain; Eurofins CEREP (France), contract laboratory
The assay is described as follows: Epigenetic binding assay, Bromodomain. Particulars: for inhibition at 10 µM: read-out: % Inhibition of Control Specific Binding.

For another assay, the target named is PRMT8 (h) (Homo sapiens, UniProt Q9NR22). As to the kind of experiment: Epigenetic enzyme assay, Methyltransferases (MTs). Format: biochemical. Particulars: read-out: % Inhibition of Control Values.
Sequence of PRMT8 (h) (Q9NR22 whole entry): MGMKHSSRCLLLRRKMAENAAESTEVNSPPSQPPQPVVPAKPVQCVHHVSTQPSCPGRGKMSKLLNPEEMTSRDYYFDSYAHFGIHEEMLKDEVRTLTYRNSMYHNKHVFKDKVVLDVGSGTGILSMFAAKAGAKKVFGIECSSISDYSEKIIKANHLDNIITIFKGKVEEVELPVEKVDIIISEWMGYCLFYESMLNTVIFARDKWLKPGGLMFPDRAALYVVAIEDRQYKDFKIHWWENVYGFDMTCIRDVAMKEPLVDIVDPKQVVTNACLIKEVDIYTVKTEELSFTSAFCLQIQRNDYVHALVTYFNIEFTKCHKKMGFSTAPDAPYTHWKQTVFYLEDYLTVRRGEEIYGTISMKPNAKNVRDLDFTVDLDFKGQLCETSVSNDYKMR
In assay [1] the target is T4, Phenylethanolamine N-methyltransferase (h) (Homo sapiens, UniProt P11086).
T4 sequence (P11086 1-282): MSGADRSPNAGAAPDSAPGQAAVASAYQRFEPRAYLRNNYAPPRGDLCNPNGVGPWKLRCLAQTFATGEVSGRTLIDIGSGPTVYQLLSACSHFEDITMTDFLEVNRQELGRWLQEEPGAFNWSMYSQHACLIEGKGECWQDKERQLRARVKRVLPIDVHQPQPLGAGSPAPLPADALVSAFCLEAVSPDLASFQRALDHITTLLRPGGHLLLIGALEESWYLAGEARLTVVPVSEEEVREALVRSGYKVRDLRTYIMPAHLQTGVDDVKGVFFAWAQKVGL
The assay is described as follows: Epigenetic enzyme assay, Small molecule methyltransferases. Format: biochemical. Conditions: read-out: % Inhibition of Control Values.

Another assay deals with T5, Thioredoxin Reductase (Escherichia coli, UniProt P0A9P4).
T5 construct: host or cells: E. coli
T5 sequence (P0A9P4 2-321): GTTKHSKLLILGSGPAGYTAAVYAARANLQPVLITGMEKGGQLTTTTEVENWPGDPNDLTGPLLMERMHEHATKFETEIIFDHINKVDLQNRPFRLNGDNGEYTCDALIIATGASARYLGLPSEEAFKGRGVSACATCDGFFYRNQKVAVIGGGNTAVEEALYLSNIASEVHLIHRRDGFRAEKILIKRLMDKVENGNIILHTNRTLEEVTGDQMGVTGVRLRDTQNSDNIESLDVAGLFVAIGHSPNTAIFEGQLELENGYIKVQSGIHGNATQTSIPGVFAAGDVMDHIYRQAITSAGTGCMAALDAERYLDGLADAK
The assay is described as follows: Thioredoxin Reductase. Format: biochemical, E. coli. As to the method:
The in vitro pharmacological studies were conducted by Eurofins PanLab (Taiwan) using the parameters shown in Table 13 with respect to appropriate literature references.

A further assay concerns the target SUV4-20H2 (h) (Homo sapiens, UniProt Q86Y97). The assay is described as follows: Epigenetic enzyme assay, Methyltransferases (MTs). Particulars: for inhibition at 10 µM: read-out: % Inhibition of Control Values. Format: biochemical.
A further assay deals with USP 7 (h) (Homo sapiens, UniProt Q93009). The assay is described as follows: Epigenetic enzyme assay, Ubiquitin modifying enzymes. Type of assay: biochemical. Conditions: 10 μM; read-out: % Inhibition of Control Values.
Sequence of USP 7 (h) (Q93009 whole entry): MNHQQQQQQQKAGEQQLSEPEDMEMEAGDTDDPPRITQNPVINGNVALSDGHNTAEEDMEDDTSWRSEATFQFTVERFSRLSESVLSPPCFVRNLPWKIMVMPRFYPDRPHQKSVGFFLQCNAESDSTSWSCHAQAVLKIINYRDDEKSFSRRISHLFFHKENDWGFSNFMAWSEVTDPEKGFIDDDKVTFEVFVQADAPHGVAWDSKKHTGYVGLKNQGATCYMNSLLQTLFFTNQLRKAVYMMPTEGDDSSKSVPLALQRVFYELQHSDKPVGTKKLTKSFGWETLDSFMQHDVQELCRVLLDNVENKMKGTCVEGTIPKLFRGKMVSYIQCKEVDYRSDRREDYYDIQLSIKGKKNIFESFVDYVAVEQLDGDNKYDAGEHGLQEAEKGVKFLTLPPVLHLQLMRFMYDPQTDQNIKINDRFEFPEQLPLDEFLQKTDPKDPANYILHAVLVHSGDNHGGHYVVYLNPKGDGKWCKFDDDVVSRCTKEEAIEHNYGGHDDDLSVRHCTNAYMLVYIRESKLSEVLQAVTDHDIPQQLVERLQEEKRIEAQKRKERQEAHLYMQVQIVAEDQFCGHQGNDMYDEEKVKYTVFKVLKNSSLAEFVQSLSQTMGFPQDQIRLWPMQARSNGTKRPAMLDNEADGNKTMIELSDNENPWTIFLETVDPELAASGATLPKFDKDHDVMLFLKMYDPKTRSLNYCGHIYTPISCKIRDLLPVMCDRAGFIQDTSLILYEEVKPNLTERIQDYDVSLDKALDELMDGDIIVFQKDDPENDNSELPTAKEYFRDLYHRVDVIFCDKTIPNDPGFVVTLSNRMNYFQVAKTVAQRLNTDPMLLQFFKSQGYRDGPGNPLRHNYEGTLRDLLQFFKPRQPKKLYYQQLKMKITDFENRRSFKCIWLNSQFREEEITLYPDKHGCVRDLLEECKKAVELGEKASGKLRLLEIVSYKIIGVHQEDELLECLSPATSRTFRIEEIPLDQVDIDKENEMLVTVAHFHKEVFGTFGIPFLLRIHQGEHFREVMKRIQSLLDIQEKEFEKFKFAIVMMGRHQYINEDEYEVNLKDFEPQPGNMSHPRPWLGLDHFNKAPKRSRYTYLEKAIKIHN
The test system of another assay is Hs 729. As to the kind of experiment: OncoPanel cell proliferation assay (10-day). Type of assay: cell-based, human. Particulars: for EC50 / GI50 / IC50: Homo sapiens, Hs 729, Soft Tissue - Sarcoma; for EC50: read-out: Cell Count EC50; for GI50: read-out: Cell Count GI50; for IC50: read-out: Cell Count IC50.
[2] abbreviates: assay year 2014, read-out: % Control Response.
Where [3] appears, read: assay year 2015, read-out: % Control Response.

Like-named read-outs stand apart in the source and are kept apart here.

Sequence of PHF8(h) (Q9UPP1 whole entry): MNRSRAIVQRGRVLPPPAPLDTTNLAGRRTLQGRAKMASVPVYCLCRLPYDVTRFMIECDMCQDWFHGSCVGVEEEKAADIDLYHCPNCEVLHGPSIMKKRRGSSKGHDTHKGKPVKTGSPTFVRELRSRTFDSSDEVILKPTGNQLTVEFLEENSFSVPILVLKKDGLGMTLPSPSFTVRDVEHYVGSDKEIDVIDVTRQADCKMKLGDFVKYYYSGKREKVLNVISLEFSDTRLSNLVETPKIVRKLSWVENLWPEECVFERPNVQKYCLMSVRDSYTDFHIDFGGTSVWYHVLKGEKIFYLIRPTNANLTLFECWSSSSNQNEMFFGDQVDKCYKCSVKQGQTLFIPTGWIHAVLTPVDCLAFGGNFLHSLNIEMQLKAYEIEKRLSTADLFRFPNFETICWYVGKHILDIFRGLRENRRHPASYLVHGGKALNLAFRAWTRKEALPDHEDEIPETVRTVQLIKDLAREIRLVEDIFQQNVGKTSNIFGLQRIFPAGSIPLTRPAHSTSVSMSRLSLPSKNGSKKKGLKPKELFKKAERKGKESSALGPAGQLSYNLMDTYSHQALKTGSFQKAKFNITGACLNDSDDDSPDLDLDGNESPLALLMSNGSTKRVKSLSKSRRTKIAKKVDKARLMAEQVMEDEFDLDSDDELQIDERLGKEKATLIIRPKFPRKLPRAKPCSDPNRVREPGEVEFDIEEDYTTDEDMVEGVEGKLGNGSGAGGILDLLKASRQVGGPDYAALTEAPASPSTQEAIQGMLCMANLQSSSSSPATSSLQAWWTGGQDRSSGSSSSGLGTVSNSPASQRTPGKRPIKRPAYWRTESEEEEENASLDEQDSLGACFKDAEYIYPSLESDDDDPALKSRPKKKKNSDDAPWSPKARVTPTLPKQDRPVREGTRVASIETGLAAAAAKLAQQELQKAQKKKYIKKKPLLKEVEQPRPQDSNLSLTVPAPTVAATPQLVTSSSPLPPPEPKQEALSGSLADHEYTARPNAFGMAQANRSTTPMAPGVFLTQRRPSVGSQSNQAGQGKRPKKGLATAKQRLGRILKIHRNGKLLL
Sequence of SUV4-20H2 (h) (Q86Y97 whole entry): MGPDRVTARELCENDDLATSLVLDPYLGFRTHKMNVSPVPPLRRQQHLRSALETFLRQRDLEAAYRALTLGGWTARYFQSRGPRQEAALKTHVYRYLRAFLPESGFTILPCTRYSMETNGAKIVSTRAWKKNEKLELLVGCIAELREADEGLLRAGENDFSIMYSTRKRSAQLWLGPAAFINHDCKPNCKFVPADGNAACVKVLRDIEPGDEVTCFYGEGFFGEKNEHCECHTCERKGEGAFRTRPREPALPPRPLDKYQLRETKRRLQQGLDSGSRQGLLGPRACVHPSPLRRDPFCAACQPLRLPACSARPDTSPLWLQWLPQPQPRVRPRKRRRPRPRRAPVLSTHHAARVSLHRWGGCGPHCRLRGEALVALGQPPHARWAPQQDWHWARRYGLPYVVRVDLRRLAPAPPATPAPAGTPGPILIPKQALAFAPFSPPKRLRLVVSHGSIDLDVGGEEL
T3 sequence (Q92793 1085-1192 limits assumed): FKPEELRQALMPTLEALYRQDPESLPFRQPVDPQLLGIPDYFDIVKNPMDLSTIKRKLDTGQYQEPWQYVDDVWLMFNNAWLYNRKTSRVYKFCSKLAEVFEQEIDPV

As usually defined, the inhibition is the relative decrease from the control value, in per cent. Broadly, the EC50 is the concentration needed to bring the measured effect to its halfway point. One may read the GI50 as the concentration that inhibits growth by half. The IC50 is the concentration at which inhibition is half-maximal. Consider `CC(C)=CCC[C@@H]1C(O)Oc2c(C)cc(O)c3c2[C@H]1CC[C@H]3C` (some centres unmarked) [Compound 2, 5,18-epoxyserrulat-14-en-8,18-diol], for which the inhibition at 10 µM at PHF8(h) is -11%; on BAZ2A (h) bromodomain it was 17%; at JMJD2D (h) it was -17%; at CREBBP (h) bromodomain (10 μM), 21%; on PRMT8 (h) it was 24%; in assay [1], 9%. Besides, the values for the inhibition at 10 µM at SUV4-20H2 (h) and on USP 7 (h) were 20% and -14%, respectively. Also, in the assay on HL-60 leukemia cells, the “% Cell growth” value is on record as −35%. Besides, the remaining activity at 10 µM on Thioredoxin Reductase (setting [2]) was found to be 6%; at Thioredoxin Reductase (setting [3]), 12%. In addition, the EC50 with Hs 729 worked out at 23.3 µM. Besides, the GI50 with Hs 729 is 21.8 µM. The IC50 in the assay with Hs 729 was determined as 23.3 µM.
For `CC(C)=CCC[C@@H]1COc2c(C)cc(O)c3c2[C@H]1CC[C@H]3C` [Compound 3, 5,18-epoxy-8-hydroxyserrulat-14-ene], the inhibition at 10 µM was 13% at PHF8(h); 16% at BAZ2A (h) bromodomain; 18% at JMJD2D (h); 17% on CREBBP (h) bromodomain (10 μM); -26% at PRMT8 (h); 5% in assay [1]. Also, the values for the inhibition at 10 µM on SUV4-20H2 (h) and on USP 7 (h) were -45% and 9%, respectively. The “% Cell growth” value with HL-60 leukemia cells stood at 138%. Also, on Thioredoxin Reductase (setting [3]), the remaining activity at 10 µM was found to be 9%.
On to `CC(C)=CCC[C@H](CO)[C@@H]1CC[C@@H](C)c2c1cc(C)c(O)c2O` [Compound 1, 7,8,18-trihydroxyserrulat-14-ene], for which the inhibition at 10 µM on PHF8(h) was determined as 36%; at BAZ2A (h) bromodomain it was 56%; on JMJD2D (h), 36%; at CREBBP (h) bromodomain (10 μM), 65%; on PRMT8 (h), 5%; in [1] it was 23%. The inhibition at 10 µM on SUV4-20H2 (h) is 11%; at USP 7 (h) it was -18%. Further, the “% Cell growth” value in the assay with HL-60 leukemia cells is recorded as −62%. Moreover, the “% Inhibition of Control Specific Binding” value on CREBBP (h) bromodomain (10 μM) is on record as “significant inhibitory activity”. The IC50 at CREBBP (h) bromodomain (Table 9, inhibition/concentration-response curve) was determined as 3.4 µM; in the assay with Hs 729, 2.78 µM. On Thioredoxin Reductase (10 μM, assay year 2014), the “% Control Response” value was “inhibited the activity”. Further, the figures for the remaining activity at 10 µM at Thioredoxin Reductase (setting [2]) and on Thioredoxin Reductase (setting [3]) were 71% and 35%, respectively. The EC50 in the assay with Hs 729 was found to be 2.77 µM. For the same compound, the concentration for 50% growth inhibition (GI50) in the assay on Hs 729 was found to be 2.67 µM. Also, the “Relative cell count (%) Mean” value was 46.0% in the assay on Hs 729 (Hs 729, 3.00E+00 microM); 1.0% in the assay on Hs 729 (Hs 729, 3.00E+01 microM); 99.4% with Hs 729 (Hs 729, 3.01E−01 microM); 107.0% with Hs 729 (Hs 729, 3.01E−02 microM); 103.0% in the assay on Hs 729 (Hs 729, 3.02E−03 microM); 3.2% with Hs 729 (Hs 729, 9.49E+00 microM). For the same compound, the “Relative cell count (%) Mean” value stood at 98.9% with Hs 729 (Hs 729, 9.51E−01 microM); 99.9% in the assay on Hs 729 (Hs 729, 9.52E−02 microM); 108.7% with Hs 729 (Hs 729, 9.53E−03 microM); 100.6% with Hs 729 (Hs 729, 9.55E−04 microM).
For `CC(C)=CCC[C@H](C)[C@@H]1CC[C@@H](C)c2c1cc(C)c(O)c2O` [Compound 4, 7,8-dihydroxyserrulat-14-ene], in the assay with HL-60 leukemia cells, the “% Cell growth” value was −83%. For the same compound, in the assay with Hs 729, the EC50 is 11.9 µM, the concentration for 50% growth inhibition (GI50) stood at 11.6 µM and the IC50 was 11.9 µM.
For `Nc1ncnc2c1ncn2[C@@H]1O[C@H](CSCC[C@H](N)C(=O)O)[C@@H](O)[C@H]1O` [SAH], the IC50 at SUV4-20H2 (h) (read-out: Reference IC50) is 4.7 µM.

These data come from patent US11331299B2, “Medicinal use of serrulatane diterpenes” (The University of Sydney, priority 2016, dated 2022).
